For one cell line, relative viability results are on record in the supplement of paper PMC10307832.

Holding throughout (assay): relative viability (nuclei count vs DMSO), 5 days (fraction); higher = more cells survive
Compound in experiment [1]: COc1cc([C@@H]2c3cc4c(cc3[C@@H](O[C@@H]3O[C@@H]5CO[C@@H](C)O[C@H]5[C@H](O)[C@H]3O)[C@H]3COC(=O)[C@H]23)OCO4)cc(OC)c1O [Etoposide] + Nc1ncn([C@H]2C[C@H](O)[C@@H](CO)O2)c(=O)n1 [Decitabine] (partner 2 µM)
In outline: (§1)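 Nuclei were stained with Hoechst during a one-step fixation (final 0.05% Triton X-100, 1% formaldehyde, 1 ug/ml Hoechst) carried out 5 days after dosing, then counted on 4× images. The cells, lung cancer lines in 1536-well plates, had been dosed by pin tool the day after seeding with one drug alone or a fixed anchor-drug dose plus five library-drug doses (not always all listed) in √10 steps. Relative viability is the nuclei count in treated wells divided by that in vehicle wells, and each value is the median of duplicate plates.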

Compound in experiment [2]: CC1=C(N=C(N=C1N)[C@H](CC(=O)N)NC[C@@H](C(=O)N)N)C(=O)N[C@@H]([C@H](C2=CN=CN2)OC3C(C(C(C(O3)CO)O)O)OC4C(C(C(C(O4)CO)O)OC(=O)N)O)C(=O)N[C@H](C)[C@H]([C@H](C)C(=O)N[C@@H]([C@@H](C)O)C(=O)NCCC5=NC(=CS5)C6=NC(=CS6)C(=O)NCCC[S+](C)C)O [Bleomycin] + Nc1nc2[nH]cc(CCc3ccc(C(=O)N[C@@H](CCC(=O)O)C(=O)O)cc3)c2c(=O)[nH]1 [Pemetrexed] (partner 0.2 µM)
The conditions noted are these: main component drawn. In outline: as §1

Compound in experiment [3]: COc1cc([C@@H]2c3cc4c(cc3[C@@H](O[C@@H]3O[C@@H]5CO[C@@H](C)O[C@H]5[C@H](O)[C@H]3O)[C@H]3COC(=O)[C@H]23)OCO4)cc(OC)c1O [Etoposide] + CC(=O)c1c(C)c2cnc(Nc3ccc(N4CCNCC4)cn3)nc2n(C2CCCC2)c1=O [Palbociclib] (partner 0.5 µM)
Put shortly:
as §1

Compound in experiment [4]: CC1=C(N=C(N=C1N)[C@H](CC(=O)N)NC[C@@H](C(=O)N)N)C(=O)N[C@@H]([C@H](C2=CN=CN2)OC3C(C(C(C(O3)CO)O)O)OC4C(C(C(C(O4)CO)O)OC(=O)N)O)C(=O)N[C@H](C)[C@H]([C@H](C)C(=O)N[C@@H]([C@@H](C)O)C(=O)NCCC5=NC(=CS5)C6=NC(=CS6)C(=O)NCCC[S+](C)C)O [Bleomycin] + Nc1ncn([C@H]2C[C@H](O)[C@@H](CO)O2)c(=O)n1 [Decitabine] (partner 2 µM)
The conditions noted are these: main component drawn. In outline:
as §1

Take UMC-11: the relative viability in experiment [1] (first compound 0.01 µM) is 0.462; in experiment [1] (first compound 0.03162 µM), 0.621; in experiment [1] (first compound 0.1 µM), 0.355; in experiment [1] (first compound 0.3162 µM), 0.356; in experiment [1] (first compound 1 µM), 0.319; in experiment [2] (first compound 0.01 µM) it was 0.74. Besides, the relative viability is 0.756 in experiment [2] (first compound 0.03162 µM); 0.74 in experiment [2] (first compound 0.1 µM); 0.598 in experiment [2] (first compound 0.3162 µM); 0.414 in experiment [2] (first compound 1 µM); 0.327 in experiment [3] (first compound 0.01 µM); 0.308 in experiment [3] (first compound 0.03162 µM). Besides, the relative viability is 0.312 in experiment [3] (first compound 0.1 µM); 0.313 in experiment [3] (first compound 0.3162 µM); 0.298 in experiment [3] (first compound 1 µM); 0.493 in experiment [4] (first compound 0.01 µM); 0.509 in experiment [4] (first compound 0.03162 µM); 0.473 in experiment [4] (first compound 0.1 µM). The results for the relative viability in experiment [4] (first compound 0.3162 µM) and in experiment [4] (first compound 1 µM) were 0.528 and 0.404, respectively.
